From PubChem BioAssay AID1963862 (Molecular Pharmacology Branch, DTP, NCI, 2024)

Test system: KRAS patient-derived spheroids with HUVEC/MSC, viability
Test: Anticancer human tumor 941728-121-R-J1-PDC patient-derived lung adenocarcinoma cell line growth inhibition [KRAS2]
Conditions: for IC50: curve of first compound; for viability, T/C: stronger effect = lower value; active = viability on the fitted dose curve at most 10% of control; inactive = the rest
Summary of the method: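 KRAS-mutant tumor cells were grown as spheroids with HUVEC endothelial cells and human MSCs as stroma. Targeted agents were tested alone and with KRAS pathway inhibitors. Doses started at or near clinical Cmax, or 10 microM, descending half-log.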

[1] = second compound 0.0316 µM, first compound 0.0316 µM
[2] = second compound 0.0316 µM, first compound 0.1 µM
[3] = second compound 0.0316 µM, first compound 0.316 µM
[4] = second compound 0.0316 µM, first compound 1 µM
[5] = second compound 0.0316 µM, first compound 3.16 µM
[6] = second compound 0.0316 µM, first compound 10 µM
[7] = second compound 0.1 µM, first compound 0.0316 µM
[8] = second compound 0.1 µM, first compound 0.1 µM
[9] = second compound 0.1 µM, first compound 0.316 µM
[10] = second compound 0.1 µM, first compound 1 µM
[11] = second compound 0.1 µM, first compound 3.16 µM
[12] = second compound 0.1 µM, first compound 10 µM
[13] = second compound 0.316 µM, first compound 0.0316 µM
[14] = second compound 0.316 µM, first compound 0.1 µM
[15] = second compound 0.316 µM, first compound 0.316 µM
[16] = second compound 0.316 µM, first compound 1 µM
[17] = second compound 0.316 µM, first compound 3.16 µM
[18] = second compound 0.316 µM, first compound 10 µM
[19] = second compound 1 µM, first compound 0.0316 µM
[20] = second compound 1 µM, first compound 0.1 µM
[21] = second compound 1 µM, first compound 0.316 µM
[22] = second compound 1 µM, first compound 1 µM
[23] = second compound 1 µM, first compound 3.16 µM
[24] = second compound 1 µM, first compound 10 µM
[25] = second compound 3.16 µM, first compound 0.0316 µM
[26] = second compound 3.16 µM, first compound 0.1 µM
[27] = second compound 3.16 µM, first compound 0.316 µM
[28] = second compound 3.16 µM, first compound 1 µM
[29] = second compound 3.16 µM, first compound 3.16 µM
[30] = second compound 3.16 µM, first compound 10 µM
[31] = second compound 0.1 µM, first compound 0.01 µM
[32] = second compound 0.316 µM, first compound 0.01 µM
[33] = second compound 1 µM, first compound 0.01 µM
[34] = second compound 3.16 µM, first compound 0.01 µM
[35] = second compound 10 µM, first compound 0.01 µM
[36] = second compound 10 µM, first compound 0.0316 µM
[37] = second compound 10 µM, first compound 0.1 µM
[38] = second compound 10 µM, first compound 0.316 µM
[39] = second compound 10 µM, first compound 1 µM
[40] = second compound 10 µM, first compound 3.16 µM
[41] = second compound 10 µM, first compound 10 µM
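Also: spheroids exposed to agents for seven days before readout.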

CC1OCC2(CCN(c3cnc(Sc4ccnc(N)c4Cl)c(N)n3)CC2)C1N (stereo not given) + C=CC(=O)N1CCN(c2nc(OCC3CCCN3C)nc3c2CCN(c2cccc4cccc(C)c24)C3)CC1CC#N
< 31.6 nM: IC50 (second compound 0.0316 µM) | IC50 (second compound 0.1 µM) | IC50 (second compound 0.316 µM) | IC50 (second compound 1 µM) | IC50 (second compound 3.16 µM)
active: viability, T/C [25] 4.61% | viability, T/C [26] 10.1% | viability, T/C [27] 4.45% | viability, T/C [28] 4.43% | viability, T/C [29] 4.99% | viability, T/C [30] 9.3%
inactive: viability, T/C [1] 32.3% | viability, T/C [2] 28.9% | viability, T/C [3] 25.4% | viability, T/C [4] 26.4% | viability, T/C [5] 23.6% | viability, T/C [6] 18.4% | viability, T/C [7] 31.4% | viability, T/C [8] 28.9% | viability, T/C [9] 25.6% | viability, T/C [10] 26.3% | viability, T/C [11] 25.4% | viability, T/C [12] 20.6% | viability, T/C [13] 32.8% | viability, T/C [14] 30.8% | viability, T/C [15] 28% | viability, T/C [16] 26.9% | viability, T/C [17] 25.1% | viability, T/C [18] 23.7% | viability, T/C [19] 32.8% | viability, T/C [20] 34.8% | viability, T/C [21] 32.7% | viability, T/C [22] 28.2% | viability, T/C [23] 29.1% | viability, T/C [24] 28.4%

Cn1nccc1Nc1nccc(-c2cc3c(s2)C(C)(C)N(CCN2CCOCC2)C3=O)n1 + C=CC(=O)N1CCN(c2nc(OCC3CCCN3C)nc3c2CCN(c2cccc4cccc(C)c24)C3)CC1CC#N
< 31.6 nM: IC50 (second compound 0.0316 µM) | IC50 (second compound 0.1 µM) | IC50 (second compound 0.316 µM) | IC50 (second compound 1 µM) | IC50 (second compound 3.16 µM)
inactive: viability, T/C [1] 29.5% | viability, T/C [2] 28.2% | viability, T/C [3] 25.1% | viability, T/C [4] 19.9% | viability, T/C [5] 22.3% | viability, T/C [6] 29.2% | viability, T/C [7] 26.6% | viability, T/C [8] 24.5% | viability, T/C [9] 22.1% | viability, T/C [10] 18.8% | viability, T/C [11] 20.7% | viability, T/C [12] 28.4% | viability, T/C [13] 26.1% | viability, T/C [14] 24.2% | viability, T/C [15] 21.4% | viability, T/C [16] 21.9% | viability, T/C [17] 19.1% | viability, T/C [18] 29.2% | viability, T/C [19] 27.1% | viability, T/C [20] 26.8% | viability, T/C [21] 23% | viability, T/C [22] 29.2% | viability, T/C [23] 22.2% | viability, T/C [24] 34.1%
active: viability, T/C [25] 1.07% | viability, T/C [26] 0.7% | viability, T/C [27] 1.22% | viability, T/C [28] 1.67% | viability, T/C [29] 0.97% | viability, T/C [30] 0.27%

CC(=O)OC12COC1CC(O)C1(C)C(=O)C(O)C3=C(C)C(OC(=O)C(O)C(NC(=O)OC(C)(C)C)c4ccccc4)CC(O)(C(OC(=O)c4ccccc4)C21)C3(C)C (stereo not given) + CC1OCC2(CCN(c3cnc(Sc4ccnc(N)c4Cl)c(N)n3)CC2)C1N
< 10 nM: IC50 (second compound 0.1 µM) | IC50 (second compound 0.316 µM) | IC50 (second compound 1 µM) | IC50 (second compound 3.16 µM) | IC50 (second compound 10 µM)
inactive: viability, T/C [31] 42.3% | viability, T/C [7] 34.6% | viability, T/C [8] 33.9% | viability, T/C [9] 39.2% | viability, T/C [10] 39.5% | viability, T/C [11] 41.6% | viability, T/C [32] 37.1% | viability, T/C [13] 34.4% | viability, T/C [14] 30.2% | viability, T/C [15] 32.1% | viability, T/C [16] 37.2% | viability, T/C [17] 38.9% | viability, T/C [33] 49.8% | viability, T/C [19] 52.4% | viability, T/C [20] 44% | viability, T/C [21] 45.9% | viability, T/C [22] 53.4% | viability, T/C [23] 54% | viability, T/C [34] 24.4% | viability, T/C [25] 23.3% | viability, T/C [26] 21.5% | viability, T/C [27] 27.3% | viability, T/C [28] 29.8% | viability, T/C [29] 27.4% | viability, T/C [35] 26.5% | viability, T/C [36] 25.6% | viability, T/C [37] 23.1% | viability, T/C [38] 24.8% | viability, T/C [39] 30.1% | viability, T/C [40] 30.2%

CN(C)C/C=C/C(=O)Nc1cc2c(Nc3ccc(F)c(Cl)c3)ncnc2cc1O[C@H]1CCOC1 + CC1OCC2(CCN(c3cnc(Sc4ccnc(N)c4Cl)c(N)n3)CC2)C1N
0.52 nM: IC50 (second compound 10 µM)
< 0.316 nM: IC50 (second compound 0.1 µM) | IC50 (second compound 0.316 µM) | IC50 (second compound 3.16 µM)
inactive: viability, T/C (second compound 0.1 µM, first compound 0.000316 µM) 38.3% | viability, T/C (second compound 0.1 µM, first compound 0.001 µM) 41.9% | viability, T/C (second compound 0.1 µM, first compound 0.00316 µM) 45.5% | viability, T/C [31] 44.5% | viability, T/C [7] 41.4% | viability, T/C [8] 43.3% | viability, T/C (second compound 0.316 µM, first compound 0.000316 µM) 33.7% | viability, T/C (second compound 0.316 µM, first compound 0.001 µM) 35.2% | viability, T/C (second compound 0.316 µM, first compound 0.00316 µM) 43.1% | viability, T/C [32] 42.3% | viability, T/C [13] 45.8% | viability, T/C [14] 41.2% | viability, T/C (second compound 1 µM, first compound 0.000316 µM) 70.1% | viability, T/C (second compound 1 µM, first compound 0.001 µM) 52.4% | viability, T/C (second compound 1 µM, first compound 0.00316 µM) 63.1% | viability, T/C [33] 70.6% | viability, T/C [19] 58.4% | viability, T/C [20] 51.9% | viability, T/C (second compound 3.16 µM, first compound 0.000316 µM) 29.7% | viability, T/C (second compound 3.16 µM, first compound 0.001 µM) 28.3% | viability, T/C (second compound 3.16 µM, first compound 0.00316 µM) 30.2% | viability, T/C [34] 31.6% | viability, T/C [25] 31.3% | viability, T/C [26] 36.7% | viability, T/C (second compound 10 µM, first compound 0.000316 µM) 54.6% | viability, T/C (second compound 10 µM, first compound 0.001 µM) 45% | viability, T/C (second compound 10 µM, first compound 0.00316 µM) 30.6% | viability, T/C [35] 52.5% | viability, T/C [36] 31.3% | viability, T/C [37] 31%
> 100 nM: IC50 (second compound 1 µM)

COC(=O)c1ccc2c(C(=Nc3ccc(N(C)C(=O)CN4CCN(C)CC4)cc3)c3ccccc3)c(O)[nH]c2c1 + CC1OCC2(CCN(c3cnc(Sc4ccnc(N)c4Cl)c(N)n3)CC2)C1N
active: viability, T/C [30] 10.7% | viability, T/C [39] 8.94% | viability, T/C [40] 3.3% | viability, T/C [41] 1.71%
inactive: viability, T/C [7] 39.2% | viability, T/C [8] 35.5% | viability, T/C [9] 36.7% | viability, T/C [10] 37.2% | viability, T/C [11] 36.6% | viability, T/C [12] 38.2% | viability, T/C [13] 35.3% | viability, T/C [14] 32.1% | viability, T/C [15] 28.8% | viability, T/C [16] 28.8% | viability, T/C [17] 24.6% | viability, T/C [18] 25.6% | viability, T/C [19] 34.4% | viability, T/C [20] 25.5% | viability, T/C [21] 18.5% | viability, T/C [22] 20.4% | viability, T/C [23] 15.4% | viability, T/C [24] 19.5% | viability, T/C [25] 29.1% | viability, T/C [26] 23.2% | viability, T/C [27] 17% | viability, T/C [28] 12.7% | viability, T/C [29] 10.5% | viability, T/C [36] 21.2% | viability, T/C [37] 16% | viability, T/C [38] 9.59%
< 31.6 nM: IC50 (second compound 0.1 µM) | IC50 (second compound 0.316 µM) | IC50 (second compound 1 µM) | IC50 (second compound 3.16 µM) | IC50 (second compound 10 µM)

O=C(c1cc(Cc2n[nH]c(=O)c3ccccc23)ccc1F)N1CCN(C(=O)C2CC2)CC1 + CC1OCC2(CCN(c3cnc(Sc4ccnc(N)c4Cl)c(N)n3)CC2)C1N
< 31.6 nM: IC50 (second compound 0.1 µM) | IC50 (second compound 0.316 µM) | IC50 (second compound 3.16 µM) | IC50 (second compound 10 µM)
inactive: viability, T/C [7] 50.3% | viability, T/C [8] 47.7% | viability, T/C [9] 48.3% | viability, T/C [10] 53.1% | viability, T/C [11] 62.1% | viability, T/C [12] 69.7% | viability, T/C [13] 41.9% | viability, T/C [14] 45.4% | viability, T/C [15] 52.8% | viability, T/C [16] 53.7% | viability, T/C [17] 57.8% | viability, T/C [18] 60.7% | viability, T/C [19] 65.1% | viability, T/C [20] 45% | viability, T/C [21] 45.7% | viability, T/C [22] 41.6% | viability, T/C [23] 49% | viability, T/C [24] 58.6% | viability, T/C [25] 31.9% | viability, T/C [26] 36.3% | viability, T/C [27] 35.3% | viability, T/C [28] 38.2% | viability, T/C [29] 41.3% | viability, T/C [30] 45.7% | viability, T/C [36] 26.1% | viability, T/C [37] 22.3% | viability, T/C [38] 29.6% | viability, T/C [39] 28.5% | viability, T/C [40] 35.1% | viability, T/C [41] 29.3%
87.3 nM: IC50 (second compound 1 µM)
